In ChEMBL document CHEMBL4330130, “Synthesis of amide and sulfonamide substituted N-aryl 6-aminoquinoxalines as PFKFB3 inhibitors with improved physicochemical properties” (Bioorg Med Chem Lett, 2019):
In brackets after ≈: the same amount, converted by molar mass.

Test: Kinetic solubility of the compound in pH 8 Tris buffer at 500 uM after 90 by UV-Vis absorbance analysis
Type: physicochemical
Conditions: read-out: Kinetic_solubility

Row | solubility kinetic at 500 µM | Compound
1 | 2 µg/mL (≈ 4.21 µM) | Cn1cc(NC(=O)c2ccncc2Nc2cc(-c3ccc4ccn(C)c4c3)c3nccnc3c2)cn1
2 | 254 µg/mL (≈ 500 µM) | Cn1ccc2ccc(-c3cc(Nc4ccccc4S(=O)(=O)Nc4cncnc4)cc4nccnc34)cc21
3 | 5 µg/mL (≈ 10 µM) | Cn1ccc2ccc(-c3cc(Nc4ccccc4S(=O)(=O)N4CCOCC4)cc4nccnc34)cc21
4 | 2 µg/mL (≈ 4.37 µM) | CN(C)S(=O)(=O)c1ccccc1Nc1cc(-c2ccc3ccn(C)c3c2)c2nccnc2c1
5 | 35 µg/mL (≈ 66.5 µM) | CN1CCC(CNS(=O)(=O)c2ccccc2Nc2cc(-c3ccc4ccn(C)c4c3)c3nccnc3c2)C1 (stereo not given)
6 | 4 µg/mL (≈ 9.79 µM) | CNC(=O)c1ccncc1Nc1cc(-c2ccc3ccn(C)c3c2)c2nccnc2c1
7 | 3 µg/mL (≈ 5.6 µM) | CN(Cc1cncnc1)S(=O)(=O)c1ccccc1Nc1cc(-c2ccc3ccn(C)c3c2)c2nccnc2c1
8 | 2 µg/mL (≈ 3.79 µM) | Cn1ccc2ccc(-c3cc(Nc4ccccc4S(=O)(=O)NCC4CCOCC4)cc4nccnc34)cc21
9 | 9 µg/mL (≈ 17.1 µM) | CN1CCCC(NS(=O)(=O)c2ccccc2Nc2cc(-c3ccc4ccn(C)c4c3)c3nccnc3c2)C1 (stereo not given)
10 | 40 µg/mL (≈ 101 µM) | Cn1ccc2ccc(-c3cc(Nc4cnccc4C(N)=O)cc4nccnc34)cc21
11 | 2 µg/mL (≈ 4.51 µM) | CNS(=O)(=O)c1ccccc1Nc1cc(-c2ccc3ccn(C)c3c2)c2nccnc2c1
12 | 127 µg/mL (≈ 260 µM) | Cn1cc(CNC(=O)c2ccncc2Nc2cc(-c3ccc4ccn(C)c4c3)c3nccnc3c2)cn1
13 | 6 µg/mL (≈ 14 µM) | Cn1ccc2ccc(-c3cc(Nc4ccccc4S(N)(=O)=O)cc4nccnc34)cc21
14 | 2 µg/mL (≈ 3.82 µM) | Cn1cc(CNS(=O)(=O)c2ccccc2Nc2cc(-c3ccc4ccn(C)c4c3)c3nccnc3c2)cn1
15 | 26 µg/mL (≈ 50.7 µM) | CN1CCC(NS(=O)(=O)c2ccccc2Nc2cc(-c3ccc4ccn(C)c4c3)c3nccnc3c2)C1 (stereo not given)
16 | 2 µg/mL (≈ 4.67 µM) | Cn1ccc2ccc(-c3cc(Nc4ccccc4S(C)(=O)=O)cc4nccnc34)cc21
17 | 3 µg/mL (≈ 5.75 µM) | Cn1ccc2ccc(-c3cc(Nc4ccccc4S(=O)(=O)NCc4cncnc4)cc4nccnc34)cc21

The next lines start with the molecule.

Row | Compound | solubility kinetic at 500 µM
18 | CC(=O)N1CC(CNC(=O)c2ccncc2Nc2cc(-c3ccc4ccn(C)c4c3)c3nccnc3c2)C1 | 252 µg/mL (≈ 498 µM)
19 | CN1CC(NC(=O)c2ccncc2Nc2cc(-c3ccc4ccn(C)c4c3)c3nccnc3c2)C1 | 170 µg/mL (≈ 367 µM)
20 | CN1CCC(NC(=O)c2ccncc2Nc2cc(-c3ccc4sc(N)nc4c3)c3nccnc3c2)C1 (stereo not given) | 241 µg/mL (≈ 485 µM)
21 | CN1CCC(NC(=O)c2ccncc2Nc2cc(-c3ccc4ccn(C)c4c3)c3nccnc3c2)CC1=O (stereo not given) | 48 µg/mL (≈ 94.9 µM)
22 | CN1CC(NC(=O)c2ccncc2Nc2cc(-c3ccc4ccn(C)c4c3)c3nccnc3c2)CCC1=O (stereo not given) | 253 µg/mL (≈ 500 µM)
23 | CC(=O)N1CCOC(CNC(=O)c2ccncc2Nc2cc(-c3ccc4ccn(C)c4c3)c3nccnc3c2)C1 (stereo not given) | 268 µg/mL (≈ 500 µM)
24 | CN1CCC(N(C)C(=O)c2ccncc2Nc2cc(-c3ccc4ccn(C)c4c3)c3nccnc3c2)C1 (stereo not given) | 245 µg/mL (≈ 498 µM)
25 | CN1CCC(NC(=O)c2ccncc2Nc2cc(-c3cc(F)c4ccn(C)c4c3)c3nccnc3c2)C1 (stereo not given) | 185 µg/mL (≈ 373 µM)
26 | CC(=O)N1CCC(NC(=O)c2ccncc2Nc2cc(-c3ccc4ccn(C)c4c3)c3nccnc3c2)C1 (stereo not given) | 253 µg/mL (≈ 500 µM)
27 | CC(=O)N1CC(NC(=O)c2ccncc2Nc2cc(-c3ccc4ccn(C)c4c3)c3nccnc3c2)C1 | 244 µg/mL (≈ 496 µM)
28 | CN1CCC(NC(=O)c2ccncc2Nc2cc(-c3ccc4ccn(C)c4c3)c3nccnc3c2)C1 (stereo not given) | 229 µg/mL (≈ 480 µM)
29 | Cn1ccc2ccc(-c3cc(Nc4cnccc4C(=O)Nc4cncnc4)cc4nccnc34)cc21 | 4 µg/mL (≈ 8.47 µM)
30 | Cn1ccc2ccc(-c3cc(Nc4cnccc4C(=O)NCc4cncnc4)cc4nccnc34)cc21 | 233 µg/mL (≈ 479 µM)
31 | CN1CCC(NC(=O)c2ccncc2Nc2cc(-c3ccc4ccn(C)c4c3)c3nccnc3c2)CC1 | 246 µg/mL (≈ 500 µM)
32 | CC(=O)N1CCCC(NC(=O)c2ccncc2Nc2cc(-c3ccc4ccn(C)c4c3)c3nccnc3c2)C1 (stereo not given) | 212 µg/mL (≈ 408 µM)
33 | CN1CCCC(NC(=O)c2ccncc2Nc2cc(-c3ccc4ccn(C)c4c3)c3nccnc3c2)C1 (stereo not given) | 246 µg/mL (≈ 500 µM)
34 | CC(=O)N1CCC(NC(=O)c2ccncc2Nc2cc(-c3ccc4ccn(C)c4c3)c3nccnc3c2)CC1 | 213 µg/mL (≈ 410 µM)
35 | Cc1csc2ccc(-c3cc(Nc4cnccc4C(=O)N[C@@H]4CCN(C)C4)cc4nccnc34)cc12 | 79 µg/mL (≈ 160 µM)
36 | Cn1ccc2ccc(-c3cc(Nc4cnccc4C(=O)NC4CCNC(=O)C4)cc4nccnc34)cc21 (stereo not given) | 242 µg/mL (≈ 492 µM)
37 | CN1CCC(CNC(=O)c2ccncc2Nc2cc(-c3ccc4ccn(C)c4c3)c3nccnc3c2)C1 (stereo not given) | 246 µg/mL (≈ 500 µM)
38 | CN(C)C(=O)c1ccncc1Nc1cc(-c2ccc3ccn(C)c3c2)c2nccnc2c1 | 175 µg/mL (≈ 414 µM)
39 | Cc1csc2ccc(-c3cc(Nc4cnccc4C(=O)N[C@H]4CCN(C)C4)cc4nccnc34)cc12 | 80 µg/mL (≈ 162 µM)
40 | Cn1ccc2ccc(-c3cc(Nc4cnccc4C(=O)NCC4COCCN4)cc4nccnc34)cc21 (stereo not given) | 239 µg/mL (≈ 484 µM)
